How the values were obtained:
[1] = not given; remark: listed apart in the source
HPEPT1 [2] = molecular target: T1, HPEPT1 (Homo sapiens, UniProt P46059); conditions: for Uptake (hPepT1): HeLa cells overexpressing HPEPT1, 50 micromolar, pH 6.0, 45 minutes; for hPepT1/Control: ratio of uptake in hPepT1 cells versus control cells
T1 sequence (P46059 1-708): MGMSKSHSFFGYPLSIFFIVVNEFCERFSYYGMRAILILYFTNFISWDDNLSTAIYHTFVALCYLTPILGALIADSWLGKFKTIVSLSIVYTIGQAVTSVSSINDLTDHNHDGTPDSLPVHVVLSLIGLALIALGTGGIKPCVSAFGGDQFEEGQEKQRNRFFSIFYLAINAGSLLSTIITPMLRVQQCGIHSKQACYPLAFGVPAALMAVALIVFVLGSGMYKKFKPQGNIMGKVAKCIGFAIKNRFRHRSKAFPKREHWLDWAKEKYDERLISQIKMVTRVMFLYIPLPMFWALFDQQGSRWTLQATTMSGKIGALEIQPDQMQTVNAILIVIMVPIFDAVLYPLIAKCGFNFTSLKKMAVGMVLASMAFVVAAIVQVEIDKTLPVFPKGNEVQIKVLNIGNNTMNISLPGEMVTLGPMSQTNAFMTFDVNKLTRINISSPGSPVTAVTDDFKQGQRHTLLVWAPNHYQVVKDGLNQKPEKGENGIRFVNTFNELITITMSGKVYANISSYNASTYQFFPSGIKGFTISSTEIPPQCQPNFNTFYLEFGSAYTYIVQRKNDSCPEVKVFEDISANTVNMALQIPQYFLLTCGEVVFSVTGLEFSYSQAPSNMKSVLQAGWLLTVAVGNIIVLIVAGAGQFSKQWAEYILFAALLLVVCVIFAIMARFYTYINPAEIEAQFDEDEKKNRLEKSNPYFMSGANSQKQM

[3] = not given; remark: listed apart in the source
HPEPT1 [4] = molecular target: T1, HPEPT1; experiment: Inhibition of radiolabelled Gly-Sar uptake in DC5 cells overexpressing HPEPT1; format: cell-based; design: expressed in transfected cells; host or cells: HeLa cells overexpressing hPEPT1 (called 'HPEPT1 infected cells'); conditions: inhibition of Gly-Sar uptake, DC5 cells overexpressing HPEPT1, 10 min, 37° C.; read-out: DC5 IC50
Method: Amino acid prodrugs are tested for their interaction with the dipeptide transporter, HPEPT1, using tissue culture cells that are engineered to overexpress HPEPT1. In this example, the cells that overexpress HPEPT1, termed DC5, are a human meduloblastoma cell line that is stably transfected with a eukaryotic expression vector encoding HPEPT1. […] DC5 cells are plated at a density of 12,000 cells/well in 96-well tissue culture plates and allowed to grow for 2 days. The cells are washed once with 200 microliters of uptake buffer and aspirated. The plates are cooled to 4° C. and 25 ul of uptake buffer containing 125 nanomoles Gly-Sar (at a specific activity of 1 microcurie/micromole) is added. The uptake buffer also contains the prodrugs to be tested at concentrations ranging from 10 micromolar to 20 millimolar. The assay is initiated by placing the plate in a shaking water bath at 37° C. and is terminated after 10 min by rapid washing with multiple changes of 4° C. phosphate buffered saline (PBS). The radioactive Gly-Sar peptide that is transported by the hpept1 is extracted from the cell layer with 200 ul of a one to one mixture of methanol and water and is counted in 4 ml of CytoScint ES™ scintillation cocktail (ICN). The data are plotted as % Gly-Sar uptake of control (no competitive substrate) versus the competitive substrate concentration. […] Typically, values that are below 10 mM indicate that the drug interacts with transporter.

| SMILES | t1/2 Buffer pH 7.4 [min] | t1/2 Human plasma [1] [min] | Uptake (hPepT1) (HPEPT1 [2]) | hPepT1/Control (HPEPT1 [2]) | t1/2 Caco-2 cell homogenates [3] [min] | IC50 (HPEPT1 [4]) [mM] |
| --- | --- | --- | --- | --- | --- | --- |
| CC(C)[C@H](N)C(=O)OC[C@H]1O[C@@H](n2ccc(N)nc2=O)C(F)(F)[C@@H]1OC(=O)[C@@H](N)C(C)C [3′,5′-di-O-L-valyl Gemcitabine] | 55.0 ± 2.7 | 2.0 ± 0.1 | 1.76 ± 0.09 nmole/mg/45 min | 1.15 | 0.9 ± 0.0 | 1.72 |
| O=C(OC1CC(n2cc(F)c(=O)[nH]c2=O)OC1CO)C1CCCN1 (stereo not shown) [3′-O-prolyl-Floxuridine] |  |  |  |  |  | > 20 |
| Nc1ccn([C@@H]2O[C@H](COC(=O)[C@H](N)Cc3ccccc3)[C@@H](O)C2(F)F)c(=O)n1 [5′-O-D-phenylalanyl Gemcitabine] | 204.0 ± 3.5 | 34.8 ± 1.1 | Not detected |  | 11.4 ± 0.2 |  |
| Nc1ccn([C@@H]2O[C@H](CO)[C@@H](OC(=O)[C@H](N)Cc3ccccc3)C2(F)F)c(=O)n1 [3′-O-D-phenylalanyl Gemcitabine] | 39.0 ± 0.7 | 7.7 ± 0.2 | Not detected |  | 8.8 ± 0.1 |  |
| CC(C)[C@H](N)C(=O)O[C@@H]1[C@@H](CO)O[C@@H](n2ccc(N)nc2=O)C1(F)F [3′-O-L-valyl Gemcitabine] | 64.0 ± 1.4 | 5.4 ± 0.1 | 1.12 ± 0.07 nmole/mg/45 min | 1.11 | 5.0 ± 0.1 | 3.69 |
| CC(C)[C@@H](N)C(=O)O[C@@H]1[C@@H](CO)O[C@@H](n2ccc(N)nc2=O)C1(F)F [3′-O-D-valyl Gemcitabine] | 74.0 ± 1.2 | 5.99 ± 0.0 | 0.81 ± 0.02 nmole/mg/45 min | 1.06 | 23.2 ± 0.2 |  |
| CC(C)[C@@H](N)C(=O)OC[C@H]1O[C@@H](n2ccc(N)nc2=O)C(F)(F)[C@@H]1OC(=O)[C@H](N)C(C)C [3′,5′-di-O-D-valyl gemcitabine] | 52.0 ± 1.1 | 2.1 ± 0.1 | 1.11 ± 0.08 nmole/mg/45 min | 1.13 | 10.3 ± 0.7 |  |
| O=C(OCC1OC(n2cc(F)c(=O)[nH]c2=O)CC1O)C1CCCN1 (stereo not shown) [5′-O-prolyl-Floxuridine] |  |  |  |  |  | > 20 |
| CC[C@H](C)[C@H](N)C(=O)OC[C@H]1O[C@@H](n2ccc(N)nc2=O)C(F)(F)[C@@H]1OC(=O)[C@@H](N)[C@@H](C)CC [3′,5′-di-O-L-isoleucyl gemcitabine] | 61.0 ± 0.5 | 2.64 ± 0.0 | 1.16 ± 0.13 nmole/mg/45 min | 1.06 | 2.1 ± 0.0 | 0.82 |
| Nc1nc(O)c2ncn(COC(CO)CO)c2n1 [Ganciclovir, reference compound] |  |  |  |  |  | > 20 |
| CC[C@H](C)[C@H](N)C(=O)O[C@@H]1[C@@H](CO)O[C@@H](n2ccc(N)nc2=O)C1(F)F [3′-O-L-isoleucyl gemcitabine] | 66.0 ± 0.21 | 8.0 ± 0.1 | 1.03 ± 0.11 nmole/mg/45 min | 1.09 | 10.6 ± 0.3 | 2.18 |
| Nc1ccn([C@@H]2O[C@H](COC(=O)[C@@H](N)Cc3ccccc3)[C@@H](OC(=O)[C@@H](N)Cc3ccccc3)C2(F)F)c(=O)n1 [3′,5′-di-O-L-phenylalanyl gemcitabine] | 38.0 ± 0.2 | 0.7 ± 0.0 | Not detected |  | 0.6 ± 0.0 |  |
| Nc1nc2c(ncn2COCCO)c(=O)[nH]1 [Acyclovir, reference compound] |  |  |  |  |  | > 25 |
| Nc1ccn([C@@H]2O[C@H](COC(=O)[C@@H](N)Cc3ccccc3)[C@@H](O)C2(F)F)c(=O)n1 [5′-O-L-phenylalanyl Gemcitabine] | 200.0 ± 1.9 | 8.4 ± 0.2 | Not detected |  | 3.2 ± 0.1 |  |
| CC(C)[C@@H](N)C(=O)OC[C@H]1O[C@@H](n2ccc(N)nc2=O)C(F)(F)[C@@H]1O [5′-O-D-valyl Gemcitabine] | 424.0 ± 1.2 | 58.1 ± 2.1 | 1.14 ± 0.04 nmole/mg/45 min | 1.58 | 37.4 ± 1.4 |  |
| Nc1ccn([C@@H]2O[C@H](CO)[C@@H](O)C2(F)F)c(=O)n1 [Gemcitabine, reference compound] |  |  |  |  |  | > 20 |
| CC(C)[C@H](N)C(=O)OC[C@H]1O[C@@H](n2ccc(N)nc2=O)C(F)(F)[C@@H]1O [5′-O-L-valyl Gemcitabine] | 416.0 ± 8.5 | 56.4 ± 2.9 | 2.14 ± 0.05 nmole/mg/45 min | 11.25 | 7.1 ± 0.6 | 0.7 |
| O=c1[nH]c(=O)n([C@H]2C[C@H](O)[C@@H](CO)O2)cc1F [Floxuridine, reference compound] |  |  |  |  |  | > 20 |
| Nc1ccn([C@@H]2O[C@H](CO)[C@@H](OC(=O)[C@@H](N)Cc3ccccc3)C2(F)F)c(=O)n1 [3′-O-L-phenylalanyl Gemcitabine] | 39.0 ± 0.12 | 5.7 ± 0.1 | Not detected |  | 0.8 ± 0.0 |  |
| Nc1ccn([C@@H]2O[C@H](COC(=O)[C@H](N)Cc3ccccc3)[C@@H](OC(=O)[C@H](N)Cc3ccccc3)C2(F)F)c(=O)n1 [3′,5′-di-O-D-phenylalanyl Gemcitabine] | 28.0 ± 0.6 | 2.4 ± 0.2 | Not detected |  | 8.3 ± 0.6 |  |
| O=C(OCC1OC(n2cc(F)c(=O)[nH]c2=O)CC1OC(=O)C1CCCN1)C1CCCN1 (stereo not shown) [3′,5′-di-O-prolyl-Floxuridine] |  |  |  |  |  | > 20 |
